This assay relates to intestinal organoids. Description: intestinal organoids cultured from single cells, image-based phenotypic assay. It counts as cell-based. An excerpt:
The present inventors developed a novel image-based phenotypic screening platform in intestinal organoids cultured from single cells to generate a toolbox of compounds shaping the intestinal organoid phenotypic landscape. The compounds were used to infer functional genetic interactions and identify pathways impacting different steps of organoid development. The inventors focused on compounds that improve the regeneration potential of the intestinal epithelium and discovered a novel role for nuclear retinoic acid receptors during organoid damage response and homeostasis both in vitro and in vivo.
FIG. 1 RXR activity is indispensable for symmetry breaking and cell type balance maintenance Representative images of organoids cultured from single cells in indicated treatment conditions (left), composite maximum intensity projections of confocal z-stacks, nuclei, DAPI, antibody staining for Lysozyme and Aldolase B, scale bar, 50 μm. Violin plots showing distribution of mean Aldolase B staining intensity in control and treated organoids (top right). Box plots inside violin plots show quartile range, whiskers show value interval with excluded outliers, white dots indicate median values, n, number of individual organoids in respective conditions. DMSO, DMSO control, RXRi, 5 μM RXR antagonist. […]

This is an account of results in patent US20220347188A1, “PROMOTING TISSUE REGENERATION” (FRIEDRICH MIESCHER INSITUTE FOR BIOMEDICAL RESEARCH, priority 2019, published 2022).

`CC1=C(/C=C/C(C)=C/C=C/C(C)=C/C(=O)O)C(C)(C)CCC1` [atRA, all-trans retinoic acid]: the “ALDH1A1-positive as well as RARE-positive region” value (ALDH1A1 antibody staining and RARE reporter gene) is “expansion”. Moreover, for the setting “organoids cultured in presence of an RXR agonist and atRA”, the “absorptive enterocytes in organoids” value is “increase in absorptive enterocytes”.
